# Test results reported in US10786509B2, “Treatment and prevention of atherothrombosis by inhibition of bruton's tyrosine kinase (BTK)” (priority 2016, dated 2020).
# Values joined by “and” are separate entries in the source; they are usually repeats but may differ in a detail not shown here. Equal values may be shown once. Read-outs that look alike come from different tables or passages of the source.
# How the values were obtained:
# [1] = tested on: platelet deposition onto plaque homogenate, plaque tissue sections or collagen; test: Platelet aggregation and thrombus formation in flowing whole blood (parallel plate flow chamber), inhibitor added in vitro; format: cell-based, human; settings: for final platelet aggregate formation onto collagen fibers: up to 2 μM, only delayed at highest concentrations
# [2] = tested on: platelet aggregation in blood; test: Ex vivo static platelet aggregation (MEA) in two healthy volunteers after oral Imbruvica
# [3] = Blood counts, liver enzymes and tolerability in two healthy volunteers after oral Imbruvica
# [4] = tested on: platelet deposition onto plaque homogenate or collagen; test: Ex vivo platelet thrombus formation under arterial flow in two healthy volunteers after oral Imbruvica; set-up: species or system human; settings: shear rate 600/s
# Procedure: For experiments in flowing blood, glass cover slips (Menzel, 24×60 mm, #1.5) coated with collagen (20 μg/ml), plaque homogenates or plaque tissue sections were assembled into parallel plate flow chambers using sticky slides (0.1 Luer sticky slides, Ibidi®, Martinsried, Germany) which had been blocked before with human serum albumin (HSA; 4% in PBS).
# Fluorescence microscopy (excitation: 485/25 nm, emission: 528/38 nm) was performed for real time measurement of platelet adhesion and aggregate formation using a 10× air objective (NA 0.4) and a CoolSNAP HQ2 CCD camera (Photometrics, Tucson, USA).
# [5] = tested on: platelet aggregation in blood; test: Platelet aggregation in blood by multiple electrode aggregometry (MEA), static, inhibitor added in vitro; format: cell-based, human; settings: for IC50: Homo sapiens, Platelet, 15 min pre-incubation, MEA; for collagen-induced platelet aggregation / platelet aggregation stimulated by TRAP, ADP or AA: 2 μM; for collagen-induced platelet aggregation: compared with plaque-induced aggregation; for maximal suppression of plaque-induced platelet aggregation: ACP-196 at 1 μM, ONO/GS-4059 at 2 μM
# Procedure: The first 3 ml of blood drawn into an empty syringe were discarded. Experiments were performed between 30 min and 4 h after venipuncture. […] (Bampalis V G. et al.
# [6] = donor B, after 1 week 140 mg each other day
# [7] = donor A, 1 week after low dose Imbruvica (140 mg/d)
# [8] = donor A, 3 h after Imbruvica loading dose (3×140 mg)
# [9] = donor B, 1 week after low dose Imbruvica (140 mg each other day)
# [10] = donor B, 3 h after Imbruvica loading dose (3×140 mg)
# [11] = plaque 833 μg/ml, static, read-out: IC50 for inhibition of plaque-induced platelet aggregation
# [12] = plaque-induced platelet aggregation, static
smiles,measurement,setting,value
"C=CC(=O)N1CCC[C@@H](n2nc(-c3ccc(Oc4ccccc4)cc3)c3c(N)ncnc32)C1 [ibrutinib, 1-[(3R)-3-[4-Amino-3-(4-phenoxyphenyl)-1H-pyrazolo[3,4-d]pyrimidin-1-yl]piperidin-1-yl]prop-2-en-1-one]",platelet aggregation onto collagen,"[1]; 0.2 μM and 0.5 μM, high shear rate 1500/s",did not reduce
same,change of platelet thrombus formation onto plaque homogenate,"[1]; 0.2 μM, high shear rate 1500/s",−69±16%
same,change of collagen-induced platelet aggregation,"[1]; 0.2 μM, shear rate 600/s",+1±6%
same,change of platelet aggregation onto plaque homogenate,"[1]; 0.2 μM, shear rate 600/s",−43±27%
same,change of platelet aggregation onto plaque tissue,"[1]; 0.2 μM, shear rate 600/s",−33±23%
same,change of platelet thrombus formation onto plaque homogenate,"[1]; 0.5 μM, high shear rate 1500/s",−93±5%
same,change of collagen-induced platelet aggregation,"[1]; 0.5 μM, shear rate 600/s",+3±9%
same,change of platelet aggregation onto plaque homogenate,"[1]; 0.5 μM, shear rate 600/s",−84±8%
same,change of platelet aggregation onto plaque tissue,"[1]; 0.5 μM, shear rate 600/s",−44±30%
same,change of final platelet aggregate formation onto collagen fibers,"[1]; 1 μM, shear rate 600/s",+8±2%
same,change of platelet aggregation onto plaque homogenate,"[1]; 1 μM, shear rate 600/s",−98±1%
same,change of platelet thrombus formation onto plaque tissue,"[1]; 1 μM, shear rate 600/s",−76±16%
same,platelet adhesion onto plaque homogenate,"[1]; 1 μM, shear rate 600/s",preserving platelet adhesion
same,inhibition of plaque-induced platelet aggregation at each day tested,"[2]; donor A, 140 mg/d during the week, blood taken 23 h or 3 h post dose",> 90%
same,inhibition of collagen-induced platelet aggregation,"[2]; donor A, 3 h after loading dose 3×140 mg",91%
same,inhibition of platelet aggregation induced by two plaque homogenate pools,"[2]; donor A, 3 h after loading dose 3×140 mg, one value per pool, listed as Imbruvica",94% and 93%
same,inhibition of platelet aggregation after collagen stimulation,"[2]; donor A, after 1 week 140 mg/d",91%
same,reduction of platelet aggregation stimulated by TRAP,"[2]; donor A, after 1 week 140 mg/d",70%
same,inhibition of platelet aggregation stimulated by two plaque homogenate pools,"[2]; donor A, after 1 week 140 mg/d, one value per pool, listed as Imbruvica",94% and 91%
same,reduction of platelet aggregation after collagen stimulation,"[2]; donor B, 3 h after loading dose 3×140 mg",58%
same,reduction of platelet aggregation after plaque stimulation (two pools),"[2]; donor B, 3 h after loading dose 3×140 mg, one value per pool, listed as Imbruvica",68% and 77%
same,inhibition of platelet aggregation after collagen stimulation,[2]; [6],82%
same,reduction of platelet aggregation stimulated by TRAP,[2]; [6],45%
same,inhibition of platelet aggregation stimulated by two plaque homogenate pools,"[2]; donor B, after 1 week 140 mg each other day, one value per pool, listed as Imbruvica",93% and 91%
same,"platelet aggregation induced by TRAP, ADP or AA","[2]; donors A and B, 3 h after loading dose 3×140 mg",barely inhibited
same,platelet aggregation induced by ADP or AA,"[2]; donors A and B, after 1 week low dose",barely inhibited
same,B-lymphocytes (measured by FACS),[3]; both donors,rather increased then decreased
same,HCT,[3]; [7],36.7
same,Hb,[3]; [7],13.0 g/dL
same,Lymphocytes,[3]; [7],2900 µL⁻¹
same,"Lymphocytes, %",[3]; [7],45.9%
same,Monocytes,[3]; [7],500 µL⁻¹
same,"Monocytes, %",[3]; [7],8.1%
same,Neutrophils,[3]; [7],2900 µL⁻¹
same,"Neutrophils, %",[3]; [7],46%
same,Platelets,[3]; [7],217000 µL⁻¹
same,Red blood cells,[3]; [7],4.22e+06 µL⁻¹
same,HCT,[3]; [8],36.8
same,Hb,[3]; [8],12.4 g/dL
same,Lymphocytes,[3]; [8],2600 µL⁻¹
same,"Lymphocytes, %",[3]; [8],44%
same,Monocytes,[3]; [8],300 µL⁻¹
same,"Monocytes, %",[3]; [8],5.8%
same,Neutrophils,[3]; [8],2900 µL⁻¹
same,"Neutrophils, %",[3]; [8],50.2%
same,Platelets,[3]; [8],247000 µL⁻¹
same,Red blood cells,[3]; [8],4.07e+06 µL⁻¹
same,HCT,[3]; [9],44
same,Hb,[3]; [9],16.1 g/dL
same,Lymphocytes,[3]; [9],2000 µL⁻¹
same,"Lymphocytes, %",[3]; [9],29.5%
same,Monocytes,[3]; [9],900 µL⁻¹
same,"Monocytes, %",[3]; [9],12.5%
same,Neutrophils,[3]; [9],3900 µL⁻¹
same,"Neutrophils, %",[3]; [9],58%
same,Platelets,[3]; [9],160000 µL⁻¹
same,Red blood cells,[3]; [9],4.91e+06 µL⁻¹
same,HCT,[3]; [10],47.8
same,Hb,[3]; [10],17.2 g/dL
same,Lymphocytes,[3]; [10],1700 µL⁻¹
same,"Lymphocytes, %",[3]; [10],27.0%
same,Monocytes,[3]; [10],700 µL⁻¹
same,"Monocytes, %",[3]; [10],10.7%
same,Neutrophils,[3]; [10],4000 µL⁻¹
same,"Neutrophils, %",[3]; [10],62.3%
same,Platelets,[3]; [10],188000 µL⁻¹
same,Red blood cells,[3]; [10],5.39e+06 µL⁻¹
same,liver enzymes,"[3]; loading dose or weekly low dose intake, two donors",not altered
same,plaque-induced thrombus formation under arterial flow,[4]; after 1 week 140 mg/d (donor A) or 140 mg each other day (donor B),suppressed
same,plaque-induced thrombus formation under arterial flow,"[4]; both donors, 3 h after loading dose 3×140 mg",suppressed
same,reduction of platelet aggregation stimulated by ADP,"[5]; 1 μM, ADP 5 μM, static",−13%
same,reduction of platelet aggregation stimulated by TRAP,"[5]; 1 μM, TRAP 5 μM, static",−31%
same,platelet aggregation upon stimulation with collagen,"[5]; 1 μM, collagen, static",almost completely inhibited
same,spontaneous minimal platelet aggregation in the absence of stimuli,"[5]; 1 μM, no stimulus",abolished
same,platelet aggregation upon stimulation with plaque,"[5]; 1 μM, plaque 833 μg/ml, static",almost completely inhibited
same,IC50,"[5]; collagen, static, read-out: IC50 for inhibition of collagen-stimulated platelet aggregation",120 ± 40 nM
same,IC50,[5]; [11],180 ± 50 nM
same,concentration at which maximal suppression was reached,"[5]; plaque- and collagen-stimulated platelet aggregation, static",0.5 µM
CC#CC(=O)N1CCC[C@H]1c1nc(-c2ccc(C(=O)Nc3ccccn3)cc2)c2c(N)nccn12 [acalabrutinib],inhibition of platelet aggregation / thrombus formation onto plaque homogenate,"[1]; 2 μM, shear rate 600/s",96%
same,final platelet aggregate formation onto collagen fibers,[1]; shear rate 600/s,did not compromise
same,collagen-induced platelet aggregation,[5]; static,equally well inhibited
same,"platelet aggregation stimulated by TRAP, ADP or AA",[5]; static,only marginally
same,maximal suppression of plaque-induced platelet aggregation,[5]; static,80%
same,IC50,[5]; [11],400 nM
same,concentration at which maximal suppression was reached,[5]; [12],1 µM
CC#CC(=O)N1CC[C@@H](n2c(=O)n(-c3ccc(Oc4ccccc4)cc3)c3c(N)ncnc32)C1.Cl [ONO/GS-4059],final platelet aggregate formation onto collagen fibers,[1]; shear rate 600/s,did not compromise
same,collagen-induced platelet aggregation,[5]; static,equally well inhibited
same,"platelet aggregation stimulated by TRAP, ADP or AA",[5]; static,only marginally
same,maximal suppression of plaque-induced platelet aggregation,[5]; static,82%
same,IC50,[5]; [11],1000 nM
same,concentration at which maximal suppression was reached,[5]; [12],2 µM
